Experimental data published in patent EP0034754A1, “2-((3-amino-2-hydroxy-propoxy)-styryl) isoxazoles, process for their preparation and pharmaceutical compositions containing them” (BASF Aktiengesellschaft, priority 1980, dated 1981).
Read-outs that look alike come from different tables or passages of the source.

Legend:
[1] = test system: Isoproterenol-Tachycardie; assay: ß-sympatholytic effect: inhibition of isoproterenol-induced tachycardia in despinalised rats; assay type: in vivo; details: Rattus norvegicus, iv, 5 min, read-out: ß-Sympatholytische Wirkung Ratte i.v. ED 50 %
Description: ß-sympatholytische Wirkung: • An despinalisierten Ratten (Stamm: Sprague Dawley, männlich, Gewicht 200 bis 240 g) verursacht Isoproterenol (0,1/ug/kg intravenös) Herfrequenzsteigerungen um durchschnittlich 121 + 2,1 min bei einer Ausgangsfrequenz von 268 + 3,9 min^-1 (Anzahl der Tiere N = 100). ß-Sympatholytika hemmen diese Frequenzsteigerungen spezifisch und dosisabhängig. Die Applikation der getesteten Substanzen erfolgt 5 min vor der Isoproterenolgabe.
Als ED 50 % werden die Dosen ermittelt, welche die Isoproterenol-Tachycardie um 50 % hemmen.
Als Referenzsubstanz dient das bekannte ß-Sympatholytikum Propranolol.

[2] = in vivo; details: for LD50: mouse, ip
[3] = test system: mittleren Carotisdruck; assay: Blood-pressure-lowering effect in the anaesthetised rat (urethane), carotid pressure; assay type: in vivo, Ratte; details: i.v.; for ED20: Rattus norvegicus, iv, Sprague Dawley rats under urethane anaesthesia, dose lowering mean carotid pressure by 20 %, read-out: Blutdrucksenkende Wirkung Ratte i.v. ED 20 %
Description: Blutdrucksenkende Wirkung an der narkotisierten Ratte: • Zur Feststellung der blutdrucksenkenden Wirkung erhalten männliche Ratten (Stamm: Sprague Dawley, Gewicht: 230 bis 280 g) in Urethan-Narkose (1,78 g/kg intraperitoneal) die Prüfsubstanzen intravenös appliziert. Die Messung des Blutdruckes in der Aorta carotis erfolgt über Statham--Transducer.
Als ED 20 % wird die Dosis ermittelt, welche den mittleren Carotisdruck um 20 % senkt.

[4] = despinalised Sprague Dawley rats, i.v., given 5 min before isoproterenol 0,1 µg/kg i.v., dose inhibiting tachycardia by 50 %

Compound | ED50 [1, 4] | selectivity ratio [2] | LD50 [2] | ED50 [1] | Blutdrucksenkende Wirkung ([3]; rat, up to a dose of 2,15 mg/kg) | ED20 [3]
COCc1cc(C=Cc2ccccc2OCC(O)CNC2CC2)on1 (stereo not drawn) [Beispiel 9, 5-[2-(2-Hydroxy-3-cyclopropylamino-propoxy)-styryl]-3-methoxymethyl-isoxazol] | 0.01 mg/kg | 12100 | 121 mg/kg |  |  | 
CC(C)NCC(O)COc1cccc2ccccc12 (stereo not drawn) [Propranolol, reference compound] |  |  |  | 0.0127 mg/kg | senkt den Blutdruck bis zu einer Dosis von 2,15 mg/kg nicht | 
Cc1noc(C=Cc2ccccc2OCC(O)CNC(C)(C)C)c1Cl (stereo not drawn) [Beispiel 16, 4-Chlor-3-methyl-5-[2-(2-hydroxy-3-tert.-butylamino-prop-oxy)-styryl]-isoxazol] | 0.01 mg/kg | 14700 | 147 mg/kg |  |  | 1 mg/kg
COCc1cc(C=Cc2ccccc2OCC(O)CNC(C)C)on1 (stereo not drawn) [Beispiel 3, 3-Methoxymethyl-5-[2-(2-hydroxy-3-isopropylamino-propoxy)--styryl]-isoxazol] | 0.0064 mg/kg | 18900 | 121 mg/kg |  |  | 1 mg/kg
COCc1cc(C=Cc2ccccc2OCC(O)CNC(C)(C)C)on1 (stereo not drawn) [Beispiel 4, 3-Methoxymethyl-5-[2-(2-hydroxY-3-tert.-butylamino-prop-oxy)-styryl]-isoxazol] | 0.00742 mg/kg | 13500 | 100 mg/kg |  |  | 1 mg/kg
Cc1noc(C=Cc2ccccc2OCC(O)CNC(C)C)c1Cl (stereo not drawn) [Beispiel 17, 4-Chlor-3-methyl-5-[2-(2-hydroxy-3-isopropylamino-prop-oxy)-styryl]-isoxazol] | 0.00681 mg/kg | 75000 | 511 mg/kg |  |  | 1.95 mg/kg
